# Entries after “also recorded” stand apart in the source; their conditions may differ.
# What was measured:
# VP16-PPARδ / GAL4-SRC-1 = target: T1, VP16-PPARδ / GAL4-SRC-1 (Homo sapiens, UniProt Q03181); experiment: mammalian two-hybrid assay, VP16-PPARδ and coactivator GAL4-SRC-1; assay type: cell-based; settings: 30 μM fatty acids, 100 nM GW1516, HEK293 cells, Fig. 3A
# T1 construct: expressed in transfected cells; host or cells: HEK293
# T1 sequence (Q03181 1-441): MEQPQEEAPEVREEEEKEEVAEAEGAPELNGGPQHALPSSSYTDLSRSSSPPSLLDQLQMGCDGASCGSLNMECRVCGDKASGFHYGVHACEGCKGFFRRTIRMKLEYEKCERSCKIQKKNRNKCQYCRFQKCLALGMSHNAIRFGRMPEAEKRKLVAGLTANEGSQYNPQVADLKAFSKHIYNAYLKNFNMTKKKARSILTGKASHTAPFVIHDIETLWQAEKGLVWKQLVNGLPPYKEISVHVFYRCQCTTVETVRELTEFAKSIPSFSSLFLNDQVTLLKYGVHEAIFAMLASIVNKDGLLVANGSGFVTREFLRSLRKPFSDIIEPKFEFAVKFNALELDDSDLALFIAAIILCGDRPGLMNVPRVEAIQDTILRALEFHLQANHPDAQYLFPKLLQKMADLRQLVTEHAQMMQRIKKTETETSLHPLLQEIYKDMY
# T1 sequence (Q15788 595-771 partner limits assumed): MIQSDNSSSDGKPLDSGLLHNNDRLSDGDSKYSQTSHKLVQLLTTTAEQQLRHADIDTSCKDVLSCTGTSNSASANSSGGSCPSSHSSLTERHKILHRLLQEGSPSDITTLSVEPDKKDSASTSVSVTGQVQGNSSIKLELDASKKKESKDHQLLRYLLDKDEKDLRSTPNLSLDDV
# GAL4-PPARα LBD = target: T2, GAL4-PPARα LBD (Homo sapiens, UniProt Q07869); experiment: GAL4-PPARα LBD luciferase reporter assay in HEK293 cells; assay type: cell-based; settings: GAL4-PPARα LBD, calculated from luciferase activity with Quest Graph EC50 Calculator
# T2 construct: chimeric receptors containing the LBD of various NRs; expressed in transfected cells; host or cells: HEK293
# T2 sequence (Q07869 239-466 limits assumed): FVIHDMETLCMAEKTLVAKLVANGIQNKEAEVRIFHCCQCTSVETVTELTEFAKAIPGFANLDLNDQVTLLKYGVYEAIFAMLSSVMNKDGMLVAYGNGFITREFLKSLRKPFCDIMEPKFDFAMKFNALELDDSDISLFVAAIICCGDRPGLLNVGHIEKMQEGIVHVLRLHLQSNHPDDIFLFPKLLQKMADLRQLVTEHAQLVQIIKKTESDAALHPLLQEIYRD
# GAL4-PPARδ LBD = target: T3, GAL4-PPARδ LBD (Homo sapiens, UniProt Q03181); experiment: GAL4-PPARδ LBD luciferase reporter assay in HEK293 cells; assay type: cell-based; settings: for EC50: GAL4-PPARδ LBD, calculated from luciferase activity with Quest Graph EC50 Calculator; for PPARδ activation compared with dietary PUFAs (in words): 30 μM fatty acids, Fig. 2A; for PPARδ activation (in words): 100 μM fatty acids, Fig. 1B
# T3 construct: chimeric receptors containing the LBD of various NRs; expressed in transfected cells; host or cells: HEK293
# T3 sequence (Q03181 211-439 limits assumed): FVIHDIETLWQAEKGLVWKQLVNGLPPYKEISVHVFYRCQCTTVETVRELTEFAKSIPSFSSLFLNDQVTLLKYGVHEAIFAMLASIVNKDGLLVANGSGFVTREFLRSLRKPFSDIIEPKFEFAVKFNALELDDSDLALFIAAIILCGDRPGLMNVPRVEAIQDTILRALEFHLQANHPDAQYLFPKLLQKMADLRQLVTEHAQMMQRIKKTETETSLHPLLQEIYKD
# [1] = target: T4, recombinant human PPARδ LBD protein (Homo sapiens, UniProt Q03181); experiment: [14C] DHA competitive ligand-binding assay; settings: 100 nM [14C] DHA, 1 μM nonlabeled fatty acids, overnight at 4 °C
# T4 construct: Human PPARδ LBD (140–442) construct was cloned into a pGEX-4T1 vector; GST (N, cleaved yes); made in house; host or cells: Escherichia coli BL21 (DE3) pLys
# T4 sequence (Q03181 140-441 limits assumed): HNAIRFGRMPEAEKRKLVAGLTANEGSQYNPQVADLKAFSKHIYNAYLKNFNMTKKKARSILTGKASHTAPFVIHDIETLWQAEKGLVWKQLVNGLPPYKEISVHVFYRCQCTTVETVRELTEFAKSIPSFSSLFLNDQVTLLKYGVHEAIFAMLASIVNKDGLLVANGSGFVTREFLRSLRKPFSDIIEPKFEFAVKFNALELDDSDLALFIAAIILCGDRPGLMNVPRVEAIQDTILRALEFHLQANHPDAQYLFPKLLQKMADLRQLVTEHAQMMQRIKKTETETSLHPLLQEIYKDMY
# Description: To identify the mechanism underlying the activation of PPARδ by GLA-derived fatty acids, we performed a [^14C] DHA competitive ligand-binding assay describing the displacement of ligands from receptors with recombinant human PPARδ LBD protein produced by a bacterial expression system (Figs. 4, A and B and S2). PPARδ LBD or glutathione-S-transferase (GST) recombinant protein was incubated with both [^14C] […] A competitive inhibition of [^14C] DHA binding was analyzed as a direct binding to PPARδ LBD (see Experimental procedures). […] DHA binding to PPARδ LBD competitively (Fig. 4C).
# Human PPARδ LBD (140–442) construct was cloned into a pGEX-4T1 vector (GE Healthcare Life Sciences) at the restriction enzyme site of SmaI and XhoI. The protein was expressed in Eschericia coli BL21 (DE3) pLys cells (Novagen) as a C-terminal fusion to a GST tag with a thrombin cleavage site. A single colony was cultured in 2 ml of LB media supplemented with 20 μg/ml of ampicillin and 30 μg/ml of chloramphenicol at 37 °C and 200 rpm for 18 h. The preculture was then transferred to 1 l of LB media until the A600 reached 0.6 to 0.8. IPTG was added to produce a final concentration of 0.4 mM, and expression was continued at 24 °C and 150 rpm for 18 h. Cells were collected using centrifugation, and pellets were resuspended in lysis buffer comprising 50 mM Tris–HCl (pH 7.5), 150 mM NaCl, 5 mM DTT, 1 mM EDTA, and 10% glycerol before sonication was performed. The supernatant was then collected using centrifugation at 100,000g and 4 °C for 70 min, after which it was loaded onto GST Accept (nacalai tesque) and equilibrated using the lysis buffer. Subsequently, the column was washed using five column volumes of the lysis buffer and thrombin cleavage buffer comprising 20 mM Tri–HCl (pH 8.4), 150 mM NaCl, 2.5 mM CaCl2, and 1 mM DTT, respectively. The GST tag was removed via digestion using biotinylated thrombin (Merck) for 18 h at 4 °C. The biotinylated thrombin was removed using Dynabeads M-280 streptavidin (Veritas). The purity of the target proteins was verified using SDS-PAGE.
# A ligand-binding assay was performed as described previously with minor modifications ([72]). Briefly, purified recombinant human PPARδ LBD protein was incubated with 100 nM ([…]) [^14C] DHA in GP buffer (137 mM NaCl, 8.1 mM Na2HPO4, 2.68 mM KCl, 1.47 mM KH2PO4, 1% sodium azide, and 0.1% gelatin) overnight at 4 °C with or without various competitors (1 μM), including DHA and GLA-derived fatty acids. Unbound ligands were removed by adsorption to 3% dextran-coated charcoal, and the supernatant was collected. The PPARδ-bound [^14C] DHA was measured using a scintillation counter (PerkinElmer).
recruitment of coactivator SRC-1 to PPARδ (VP16-PPARδ / GAL4-SRC-1),EC50 (GAL4-PPARα LBD) [µM],EC50 (GAL4-PPARδ LBD) [µM],SMILES,competitive displacement of [14C] DHA binding to PPARδ LBD [1],PPARδ activation compared with dietary PUFAs (in words) (GAL4-PPARδ LBD),PPARδ activation (in words) (GAL4-PPARδ LBD)
not,11,509,"CCCCC/C=C\C/C=C\C/C=C\CCCCC(=O)O [GLA, γ-linolenic acid, reference compound]",only weak competition,–,–
induced coactivator-recruitment,2.84,10.6,"CCCCCC(O)CCC=CCC=CCCCCC(=O)O (stereo not drawn) [γHYD, 13-hydroxy-cis-6,cis-9-octadecadienoic acid]",displaced [^14C] DHA binding to PPARδ LBD competitively; also recorded: comparable ligand-binding abilities to that of the C22 fatty acid DHA,activated PPARδ more robustly than DHA and eicosapentaenoic acid as well as GLA,"more robust PPARδ activation than their original compound, GLA"
induced coactivator-recruitment,4.14,20.3,"CCCCCC(=O)CCC=CCC=CCCCCC(=O)O [γKetoD, 13-oxo-cis-6,cis-9-octadecadienoic acid]",displaced [^14C] DHA binding to PPARδ LBD competitively; also recorded: comparable ligand-binding abilities to that of the C22 fatty acid DHA,activated PPARδ more robustly than DHA and eicosapentaenoic acid as well as GLA,"more robust PPARδ activation than their original compound, GLA"

# Source: PMC9636582 (The Journal of Biological Chemistry, 2022)
